The record followed here is patent publication US20110224079A1, “SPIROHETEROCYCLIC N-OXYAMIDES AS PESTICIDES” (SYNGENTA CROP PROTECTION LLC, priority 2008, published 2011).

Assay [1] concerns Plutella xylostella (diamond back moth). In words: Example B5: activity against Plutella xylostella, artificial diet in microtiter plate (larvicide, preventive). The format is in vivo. Conditions: 120 h, L2 larvae, 5 days, read-out: activity (larval mortality, antifeedant, growth regulation). On the procedure:
Activity Against Plutella xylostella (Diamond Back Moth)
(Larvicide, Feeding/Residual Contact Activity, Preventive)
24-well microtiter plate (MTP) with artificial diet is treated with test solutions by pipetting. After drying, the MTP's are infested with larvae (L2)(10-15 per well). After an incubation period of 5 days, samples are checked for larval mortality, antifeedant and growth regulation.

In assay [2] the test system is Nilaparvata lugens (brown rice planthopper). In words: Example B8: activity against Nilaparvata lugens, sprayed rice seedlings (larvicide, feeding/contact). The conditions noted are these: in Oryza sativa, read-out: activity (mortality, growth regulation, effects on F1 generation).
The subject of assay [3] is Aphis Craccivora (cowpea aphid). In words: Example B11: translaminar activity against Aphis craccivora on French bean leaves. Conditions: 120 h, upper leaf side painted, aphids on lower side, 5 days. It counts as in vivo. On the procedure: Translaminar Activity Against Aphis Craccivora (Cowpea Aphid)
French bean leaves (Phaseolus vulgaris) are infested with about 20 mixed age individuals on the lower leaf side using clip cages. 1 day after the infestation, the upper side of the leaves is treated with the test solution by painting. 5 days later, samples are checked for mortality.

Assay [4] concerns cowpea aphid (Aphis craccivora). In words: Example B14: insecticide seed treatment of sugarbeet seeds, infestation with cowpea aphid. Conditions: 0.3 mg a.i./seed, infested after 14 days, counted 7 days later. It counts as in vivo. On the procedure: Insecticide Seed Treatment
Sugarbeet seeds are treated with test compounds at various rates (mg a.i./seed). The seeds are sown into pots filled with soil. After placing the seeds on the soil surface they are further covered with soil. Before and during the bioassays, the plants are grown under optimal greenhouse conditions. After 14 days, the plants are infested with cowpea aphid (Aphis craccivora) by placing one infested pea seedling containing approximately 150 aphids of a population of mixed developmental stages onto each plant. Seven days after infestation, the number of aphids is counted per plant. Each treatment group is replicated 10 times. Each replicate contains 1 plant.

The subject of assay [5] is Myzus persicae (green peach aphid). In words: Example B2: activity against Myzus persicae, pea seedling roots in test solution (systemic/feeding, curative). Conditions: 144 h, read-out: activity (mortality).
For assay [6], the system named is Bemisia tabaci (tobacco white fly). In words: Example B7: activity against Bemisia tabaci, sprayed bean plants (larvicide, contact/feeding). It counts as in vivo. The conditions noted are these: 504 h, bean plants with N-2 nymphs sprayed, three weeks, read-out: activity (efficacy, number of emerged adults). The gist of the method: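 After a 4-day egg-laying period and 7 further days, bean plants bearing hatched N-2 nymphs were sprayed with test solutions (2 replicates). Emerged adults were counted three weeks later; efficacy was derived by comparison with untreated samples.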

Assay [7] relates to Myzus persicae (green peach aphid). In words: Example B13: drench activity against Myzus persicae, pea seedlings in field soil. The conditions noted are these: 168 h, read-out: drench activity (mortality).
Assay [8] shares this test system. In words: Example B17: activity against Myzus persicae on sprayed pepper plants (feeding/residual contact). The conditions noted are these: 144 h, infested pepper plants sprayed, 6 days. It counts as in vivo.
Assay [9] has the same test system. In words: Example B1: activity against Myzus persicae, sprayed sunflower leaf discs (feeding/residual contact, preventive). The conditions noted are these: foliar, 144 h, read-out: activity (mortality).

With `COCON1C(=O)C(c2cc(C)ccc2C)=C(O)C12CCN(OC)CC2` [P2.2, 3-(2,5-dimethyl-phenyl)-4-hydroxy-8-methoxy-1-methoxymethoxy-1,8-diaza-spiro[4.5]dec-3-en-2-one], the mortality at 400 ppm in assay [1], in assay [2], in [3], in [5] and in [9] was above 80% in each case. In addition, the “efficacy in the reduction of aphids compared to the untreated control plants” value in assay [4] is 60%. Further, in assay [6], the pest or weed control at 200 ppm was above 80%. Besides, in assay [7], the mortality at 25 ppm was above 80%. In assay [8], the mortality at 200 ppm is at least 80%.
